pIC50: −log10 of the molar value.
How the values were obtained:
[1] = molecular target: T1, Tyrosine-protein kinase JAK3 (Homo sapiens, UniProt P52333); assay: Inhibition of recombinant human GST-tagged JAK3 catalytic domain expressed in baculovirus expression system by Z'-LYTE assay
T1 sequence (P52333 whole entry): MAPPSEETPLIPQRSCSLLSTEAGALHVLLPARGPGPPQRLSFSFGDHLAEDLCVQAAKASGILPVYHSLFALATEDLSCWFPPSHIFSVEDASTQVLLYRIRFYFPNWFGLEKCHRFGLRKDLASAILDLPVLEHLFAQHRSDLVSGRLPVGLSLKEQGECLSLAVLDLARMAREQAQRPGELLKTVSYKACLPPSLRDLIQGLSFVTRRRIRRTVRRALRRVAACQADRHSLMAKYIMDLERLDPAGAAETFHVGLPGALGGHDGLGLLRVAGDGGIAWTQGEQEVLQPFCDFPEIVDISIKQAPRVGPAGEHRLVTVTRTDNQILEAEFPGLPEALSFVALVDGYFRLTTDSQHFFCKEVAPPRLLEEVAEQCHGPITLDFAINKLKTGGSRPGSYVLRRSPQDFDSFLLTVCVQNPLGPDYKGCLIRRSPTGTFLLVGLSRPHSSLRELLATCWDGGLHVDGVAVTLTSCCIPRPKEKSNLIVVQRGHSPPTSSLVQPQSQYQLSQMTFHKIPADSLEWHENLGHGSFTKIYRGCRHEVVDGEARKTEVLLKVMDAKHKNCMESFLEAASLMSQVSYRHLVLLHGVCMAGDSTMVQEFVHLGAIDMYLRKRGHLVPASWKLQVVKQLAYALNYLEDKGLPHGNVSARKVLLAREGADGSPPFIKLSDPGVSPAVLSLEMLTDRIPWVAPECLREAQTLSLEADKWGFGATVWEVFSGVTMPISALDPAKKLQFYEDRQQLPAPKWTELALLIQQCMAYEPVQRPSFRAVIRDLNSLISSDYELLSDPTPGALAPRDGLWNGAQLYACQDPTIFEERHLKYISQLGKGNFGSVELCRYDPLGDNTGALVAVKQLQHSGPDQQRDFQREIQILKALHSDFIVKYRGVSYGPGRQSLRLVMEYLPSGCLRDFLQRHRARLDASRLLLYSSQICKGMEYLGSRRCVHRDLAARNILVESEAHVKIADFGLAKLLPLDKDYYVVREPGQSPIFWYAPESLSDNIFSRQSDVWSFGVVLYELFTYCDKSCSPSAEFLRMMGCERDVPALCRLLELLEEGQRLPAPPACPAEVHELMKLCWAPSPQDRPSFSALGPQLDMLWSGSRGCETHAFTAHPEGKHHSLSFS

[2] = molecular target: Cyclin-dependent kinase 2 (Homo sapiens, UniProt P24941); assay: Inhibition of full-length recombinant human His-tagged CDK2 expressed in baculovirus expression system by Z'-LYTE assay
CDK9/cyclin T1 = CDK9/cyclin T1 (Homo sapiens, UniProt P50750); assay: Inhibition of full-length recombinant human His-tagged CDK9/cyclin T1 expressed in baculovirus expression system by Adapta assay
[3] = molecular target: Serine/threonine-protein kinase PLK1 (Homo sapiens, UniProt P53350); assay: Inhibition of full-length recombinant human His-tagged PLK1 expressed in baculovirus expression system by Z'-LYTE assay
[4] = molecular target: T2, Serine/threonine-protein kinase TBK1 (Homo sapiens, UniProt Q9UHD2); assay: Inhibition of full-length recombinant human GST-tagged TBK1 expressed in insect cells by Z'-LYTE assay
T2 sequence (Q9UHD2 whole entry): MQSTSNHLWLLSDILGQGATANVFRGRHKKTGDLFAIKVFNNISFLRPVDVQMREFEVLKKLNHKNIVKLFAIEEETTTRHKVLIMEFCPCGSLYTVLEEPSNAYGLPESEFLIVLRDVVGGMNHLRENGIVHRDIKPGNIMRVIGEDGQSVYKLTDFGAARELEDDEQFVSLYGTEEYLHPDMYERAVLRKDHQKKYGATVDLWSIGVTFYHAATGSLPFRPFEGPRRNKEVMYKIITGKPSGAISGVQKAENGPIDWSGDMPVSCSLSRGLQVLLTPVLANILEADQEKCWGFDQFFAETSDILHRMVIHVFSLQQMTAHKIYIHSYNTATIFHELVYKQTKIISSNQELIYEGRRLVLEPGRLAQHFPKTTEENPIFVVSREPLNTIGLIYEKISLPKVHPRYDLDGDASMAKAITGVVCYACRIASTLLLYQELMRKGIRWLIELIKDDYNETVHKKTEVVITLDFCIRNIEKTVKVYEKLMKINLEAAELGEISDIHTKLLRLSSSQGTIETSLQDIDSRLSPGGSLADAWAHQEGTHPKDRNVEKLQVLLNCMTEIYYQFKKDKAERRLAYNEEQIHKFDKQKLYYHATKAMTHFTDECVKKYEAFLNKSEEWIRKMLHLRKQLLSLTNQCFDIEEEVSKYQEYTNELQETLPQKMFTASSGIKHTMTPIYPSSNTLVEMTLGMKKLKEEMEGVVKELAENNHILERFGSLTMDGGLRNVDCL

[5] = molecular target: Serine/threonine-protein kinase MRCK alpha (Homo sapiens, UniProt Q5VT25); assay: Inhibition of recombinant human His-tagged CDC42BPA catalytic domain expressed in baculovirus expression system by Z'-LYTE assay
[6] = molecular target: PAS domain-containing serine/threonine-protein kinase (Homo sapiens, UniProt Q96RG2); assay: Inhibition of recombinant human GST-tagged PASK catalytic domain expressed in baculovirus expression system by Z'-LYTE assay
[7] = Inhibition of full-length recombinant human GST and His-tagged AMPK alpha2/beta1/gamma1 expressed in baculovirus expression system by LanthaScreen assay
[8] = molecular target: Vascular endothelial growth factor receptor 2 (Homo sapiens, UniProt P35968); assay: Inhibition of recombinant human His-tagged cytoplasmic KDR expressed in baculovirus expression system by Z'-LYTE assay
[9] = molecular target: RAF proto-oncogene serine/threonine-protein kinase (Homo sapiens, UniProt P04049, Y340D/Y341D); assay: Inhibition of recombinant human GST-tagged RAF1 Y340D/Y341D mutant expressed in baculovirus expression system by Z'-LYTE assay
[10] = molecular target: Insulin-like growth factor 1 receptor (Homo sapiens, UniProt P08069); assay: Inhibition of recombinant human C-terminal His-tagged cytoplasmic IGF1R (960 to 1397 residues) expressed in baculovirus expression system by Z'-LYTE assay
[11] = molecular target: Macrophage colony-stimulating factor 1 receptor (Homo sapiens, UniProt P07333); assay: Inhibition of recombinant human His-tagged cytoplasmic CSF1R expressed in baculovirus expression system by Z'-LYTE assay
Sequence of Macrophage colony-stimulating factor 1 receptor (P07333 whole entry): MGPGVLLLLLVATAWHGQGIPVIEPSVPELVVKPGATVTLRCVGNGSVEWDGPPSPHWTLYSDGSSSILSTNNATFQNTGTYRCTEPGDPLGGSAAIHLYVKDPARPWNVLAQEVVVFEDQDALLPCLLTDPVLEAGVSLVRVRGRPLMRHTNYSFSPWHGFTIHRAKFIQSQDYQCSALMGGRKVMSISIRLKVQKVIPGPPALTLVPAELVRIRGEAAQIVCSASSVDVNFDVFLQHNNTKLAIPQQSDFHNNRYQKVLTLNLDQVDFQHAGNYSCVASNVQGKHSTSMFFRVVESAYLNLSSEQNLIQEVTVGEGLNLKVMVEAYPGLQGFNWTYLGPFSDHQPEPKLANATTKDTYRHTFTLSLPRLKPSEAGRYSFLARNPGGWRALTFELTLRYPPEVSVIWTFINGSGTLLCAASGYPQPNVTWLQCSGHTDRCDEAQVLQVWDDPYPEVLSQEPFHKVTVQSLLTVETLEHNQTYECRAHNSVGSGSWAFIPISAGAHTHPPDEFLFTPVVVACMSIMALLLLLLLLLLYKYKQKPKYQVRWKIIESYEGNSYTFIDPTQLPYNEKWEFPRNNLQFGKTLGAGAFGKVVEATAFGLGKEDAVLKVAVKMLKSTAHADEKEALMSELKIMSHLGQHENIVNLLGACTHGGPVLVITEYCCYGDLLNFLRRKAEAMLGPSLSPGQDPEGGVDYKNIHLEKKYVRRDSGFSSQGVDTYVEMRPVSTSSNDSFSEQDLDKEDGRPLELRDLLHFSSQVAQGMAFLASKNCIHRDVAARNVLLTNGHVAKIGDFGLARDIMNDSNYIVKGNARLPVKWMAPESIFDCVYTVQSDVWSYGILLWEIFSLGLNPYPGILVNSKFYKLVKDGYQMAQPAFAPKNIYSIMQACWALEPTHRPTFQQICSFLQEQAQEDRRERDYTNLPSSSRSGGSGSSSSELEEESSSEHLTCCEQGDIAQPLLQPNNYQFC

Sequence of Insulin-like growth factor 1 receptor (P08069 31-736 limits assumed): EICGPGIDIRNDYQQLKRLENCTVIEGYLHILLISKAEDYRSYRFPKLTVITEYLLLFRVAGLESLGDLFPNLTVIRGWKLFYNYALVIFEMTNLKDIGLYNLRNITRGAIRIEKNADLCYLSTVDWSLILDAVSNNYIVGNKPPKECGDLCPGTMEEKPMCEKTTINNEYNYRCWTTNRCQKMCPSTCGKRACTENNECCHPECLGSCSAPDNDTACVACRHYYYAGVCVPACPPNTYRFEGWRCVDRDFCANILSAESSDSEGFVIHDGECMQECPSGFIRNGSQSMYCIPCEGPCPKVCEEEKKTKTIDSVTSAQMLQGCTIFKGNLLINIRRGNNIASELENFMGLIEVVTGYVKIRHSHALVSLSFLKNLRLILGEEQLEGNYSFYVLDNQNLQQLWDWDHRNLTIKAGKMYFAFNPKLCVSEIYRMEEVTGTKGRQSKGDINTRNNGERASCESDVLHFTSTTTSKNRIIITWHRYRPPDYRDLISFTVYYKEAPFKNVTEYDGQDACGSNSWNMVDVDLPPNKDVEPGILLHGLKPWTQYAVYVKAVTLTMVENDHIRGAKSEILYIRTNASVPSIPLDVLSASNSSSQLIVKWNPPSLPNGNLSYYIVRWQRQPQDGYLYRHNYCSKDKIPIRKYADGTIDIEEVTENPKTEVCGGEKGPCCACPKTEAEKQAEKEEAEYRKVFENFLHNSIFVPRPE
Sequence of Insulin-like growth factor 1 receptor (P08069 741-1367 limits assumed): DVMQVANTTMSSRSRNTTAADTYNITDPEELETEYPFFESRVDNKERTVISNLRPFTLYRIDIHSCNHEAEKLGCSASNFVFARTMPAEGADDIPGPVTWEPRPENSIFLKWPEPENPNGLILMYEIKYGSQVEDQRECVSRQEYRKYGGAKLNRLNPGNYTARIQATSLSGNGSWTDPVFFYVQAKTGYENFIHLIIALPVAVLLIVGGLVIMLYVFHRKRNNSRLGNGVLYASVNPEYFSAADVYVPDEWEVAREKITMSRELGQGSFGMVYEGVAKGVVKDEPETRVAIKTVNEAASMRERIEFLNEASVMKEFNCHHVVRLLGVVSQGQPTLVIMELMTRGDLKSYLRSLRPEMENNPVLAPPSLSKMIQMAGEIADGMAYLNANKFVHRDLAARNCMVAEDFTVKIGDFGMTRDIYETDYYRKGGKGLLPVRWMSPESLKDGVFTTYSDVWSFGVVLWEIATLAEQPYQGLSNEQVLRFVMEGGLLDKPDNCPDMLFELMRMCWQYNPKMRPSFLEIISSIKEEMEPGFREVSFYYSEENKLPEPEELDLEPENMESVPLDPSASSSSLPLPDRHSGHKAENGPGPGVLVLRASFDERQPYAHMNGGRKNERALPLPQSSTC
Sequence of Serine/threonine-protein kinase MRCK alpha (Q5VT25 whole entry, the tested form may be a part): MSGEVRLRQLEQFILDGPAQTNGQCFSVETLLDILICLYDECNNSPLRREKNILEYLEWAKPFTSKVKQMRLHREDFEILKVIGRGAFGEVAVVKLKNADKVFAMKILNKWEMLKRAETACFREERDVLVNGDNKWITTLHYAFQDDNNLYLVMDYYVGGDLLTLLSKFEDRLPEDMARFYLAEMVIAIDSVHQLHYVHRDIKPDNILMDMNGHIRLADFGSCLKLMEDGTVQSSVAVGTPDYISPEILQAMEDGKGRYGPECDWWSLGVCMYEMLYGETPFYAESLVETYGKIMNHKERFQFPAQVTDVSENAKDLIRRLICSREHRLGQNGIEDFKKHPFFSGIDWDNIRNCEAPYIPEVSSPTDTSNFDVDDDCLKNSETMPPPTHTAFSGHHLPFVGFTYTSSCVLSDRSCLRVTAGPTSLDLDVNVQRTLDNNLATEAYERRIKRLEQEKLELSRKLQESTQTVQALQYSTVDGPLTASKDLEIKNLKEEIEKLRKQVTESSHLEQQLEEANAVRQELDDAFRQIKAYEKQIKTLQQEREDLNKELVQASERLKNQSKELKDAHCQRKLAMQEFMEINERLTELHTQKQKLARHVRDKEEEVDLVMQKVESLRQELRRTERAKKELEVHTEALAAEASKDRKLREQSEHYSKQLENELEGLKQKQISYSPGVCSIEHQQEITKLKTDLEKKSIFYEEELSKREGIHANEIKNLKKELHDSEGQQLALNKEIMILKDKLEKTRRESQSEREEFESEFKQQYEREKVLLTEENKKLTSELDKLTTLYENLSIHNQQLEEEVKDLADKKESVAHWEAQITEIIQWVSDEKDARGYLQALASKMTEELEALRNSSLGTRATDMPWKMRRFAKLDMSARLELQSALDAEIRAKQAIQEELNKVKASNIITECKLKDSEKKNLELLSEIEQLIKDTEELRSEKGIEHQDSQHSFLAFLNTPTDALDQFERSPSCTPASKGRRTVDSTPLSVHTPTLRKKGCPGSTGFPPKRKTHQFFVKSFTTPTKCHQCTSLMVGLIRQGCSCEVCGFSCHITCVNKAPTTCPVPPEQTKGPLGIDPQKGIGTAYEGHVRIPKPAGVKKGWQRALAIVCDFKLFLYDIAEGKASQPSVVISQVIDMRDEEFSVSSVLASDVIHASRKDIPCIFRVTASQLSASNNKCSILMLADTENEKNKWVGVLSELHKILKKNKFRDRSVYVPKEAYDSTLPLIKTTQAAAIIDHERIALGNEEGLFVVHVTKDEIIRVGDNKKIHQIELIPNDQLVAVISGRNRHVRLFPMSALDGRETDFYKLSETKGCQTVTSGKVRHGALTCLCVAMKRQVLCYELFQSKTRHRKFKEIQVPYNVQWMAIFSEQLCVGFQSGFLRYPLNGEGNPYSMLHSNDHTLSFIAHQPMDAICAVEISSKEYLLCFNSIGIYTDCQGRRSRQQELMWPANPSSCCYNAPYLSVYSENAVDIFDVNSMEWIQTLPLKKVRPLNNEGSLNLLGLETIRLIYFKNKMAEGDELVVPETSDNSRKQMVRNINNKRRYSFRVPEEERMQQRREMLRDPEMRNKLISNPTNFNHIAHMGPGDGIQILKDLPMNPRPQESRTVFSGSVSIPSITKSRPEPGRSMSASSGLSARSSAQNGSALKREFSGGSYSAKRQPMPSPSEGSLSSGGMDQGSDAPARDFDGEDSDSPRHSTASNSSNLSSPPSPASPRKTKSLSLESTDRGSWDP
Sequence of RAF proto-oncogene serine/threonine-protein kinase (P04049 whole entry Y340D/Y341D, the tested form may be a part): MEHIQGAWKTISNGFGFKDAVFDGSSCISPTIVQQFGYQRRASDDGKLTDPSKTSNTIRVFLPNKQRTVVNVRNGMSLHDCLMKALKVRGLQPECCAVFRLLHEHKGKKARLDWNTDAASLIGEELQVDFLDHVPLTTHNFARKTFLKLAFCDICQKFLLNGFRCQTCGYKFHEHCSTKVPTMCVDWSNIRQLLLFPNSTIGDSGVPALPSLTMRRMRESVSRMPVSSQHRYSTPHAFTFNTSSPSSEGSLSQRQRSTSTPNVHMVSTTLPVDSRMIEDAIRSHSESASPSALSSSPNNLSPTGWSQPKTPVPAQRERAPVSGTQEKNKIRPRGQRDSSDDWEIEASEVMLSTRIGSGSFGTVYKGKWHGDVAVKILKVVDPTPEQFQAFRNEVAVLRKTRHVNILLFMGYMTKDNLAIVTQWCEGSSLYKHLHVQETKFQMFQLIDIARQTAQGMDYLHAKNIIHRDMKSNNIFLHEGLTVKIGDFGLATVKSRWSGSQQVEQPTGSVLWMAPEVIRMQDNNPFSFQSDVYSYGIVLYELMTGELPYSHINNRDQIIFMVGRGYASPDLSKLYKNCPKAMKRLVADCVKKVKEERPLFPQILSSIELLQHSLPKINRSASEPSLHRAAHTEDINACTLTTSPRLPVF

SMILES | pIC50 [1] | pIC50 [2] | pIC50 (CDK9/cyclin T1) | pIC50 [3] | pIC50 [4] | pIC50 [5] | pIC50 [6] | pIC50 [7] | pIC50 [8] | pIC50 [9] | pIC50 [10] | pIC50 [11]
Cn1cc(-c2cnc3c(-c4csc(C(=O)NCC(F)(F)F)c4)cnn3c2)cn1 | 6.37 | > 8.00 | 7.46 | < 4.00 | > 8.00 | 5.04 | < 4.00 | 7.17 | 7.82 | 6.25 | < 4.00 | 7.00
Cc1sc(C(=O)N[C@@H]2[C@H](N)CCCC2(F)F)cc1-c1cnn2cc(Cl)cnc12 | 5.89 | 7.29 | 6.62 | < 4.00 | > 8.00 | 6.00 | 5.85 | 6.54 | 4.96 | 6.02 | < 4.00 | 4.66
O=C(NCC(F)(F)F)c1cc(-c2cnn3cc(-c4ccc(OCCN5CCCCC5)cc4)cnc23)cs1 | 6.55 | 7.92 | 7.35 | 4.26 | > 8.00 | 5.92 | 4.43 | 7.60 | > 8.00 | 6.20 | < 4.00 | 7.39
Cn1cc(-c2cnc3c(-c4csc(C(=O)N[C@@H]5CCCC[C@@H]5N)c4)cnn3c2)cn1 (racemic) | 7.48 | 8.66 | 7.92 | < 5.00 | > 9.00 | 7.14 | 5.82 |  | 8.46 | 7.32 | 5.55 | 8.48

— ChEMBL document CHEMBL4477252, “Optimization of microtubule affinity regulating kinase (MARK) inhibitors with improved physical properties” (Bioorg Med Chem Lett, 2016)
